According to patent US20250084062A1, “SUBSTITUTED QUINOLINE DERIVATIVE” (ASTELLAS PHARMA INC., priority 2021, published 2025):
Where a name gives a salt, the structure may show the parent alone.

Test system: acetylcholine receptor clustering in C2Cl2 cells
Test: Induction of acetylcholine receptor clustering in mouse myoblasts C2Cl2 cells (Test Example 1)
Assay type: cell-based
Settings: for Emax / EC50: Mus musculus; for Emax: Myoblast, maximum response, area of acetylcholine receptor cluster region vs 10 ng/ml Agrin (100%), 0.1 ng/ml Agrin = 0%, read-out: Max; for EC50: Myotube, C2Cl2 myotubes, with 0.1 ng/ml Agrin, concentration giving 50% of cluster area of 10 ng/ml Agrin (100%), read-out: EC50
Procedure: Test Example 1: Evaluation of the Induction of Acetylcholine Receptor Clustering in Mouse Myoblasts C2Cl2 Cells
Induction of acetylcholine receptor clustering by the test compound was evaluated by using fluorescently-labeled Bungarotoxin to image and quantify the acetylcholine receptor cluster region induced by the differentiation of myoblasts into myotubes, and measure the change in area. The following test method was optimized with reference to various reports including FEBS let., 586, 3111-3116 (2012). When a concentration response curve is obtained by plotting the logarithmic concentration of the test compound on the horizontal axis and the ratio of the area of acetylcholine receptor cluster region on the vertical axis, the inducing action of the test compound can be determined.
A concentration response curve as an index indicating acetylcholine receptor clustering inducing action of the test compound in mouse C2Cl2 cells was prepared. C2Cl2 cells (ATCC Number: CRL-1772) were seeded at about 5000 cells/well on a 384-well plate (354667; Corning) coated with type I collagen and allowed to incubate at 37 degrees Celsius overnight in DMEM+20% FBS+1% penicillin/streptomycin medium. The following day, the medium was removed and replaced with a differentiation medium containing DMEM+2% FBS+1% penicillin/streptomycin, and allowed to incubate at 37 degrees Celsius for 4 days. The test compound was dissolved in DMSO and added to a differentiation medium containing 0.1 ng/ml Agrin (550-AG-100; R&D systems) such that the final concentration was […] (3-fold serial dilution) or 0.00017 to 3.3 μM (3-fold serial dilution). The final concentration of DMSO was 0.3%. After the 4 days of incubation, the differentiation medium was replaced with a differentiation medium containing the test compound and 0.1 ng/ml Agrin or a differentiation medium containing 0.1 ng/ml Agrin or 10 ng/ml Agrin alone, and allowed to incubate at 37 degrees Celsius overnight. The next day, 10 μl of DMEM containing Bungarotoxin-Alexa488 (B13422; Life technologies) was added to the differentiation medium containing test compound and Agrin and Agrin alone so that the final concentration of Bungarotoxin-Alexa488 was 1 μg/ml, and was allowed to incubate at 37 degrees Celsius for 1 hour to label the acetylcholine receptor. After removing all the medium, 4% PFA was added to each well and allowed to incubate at room temperature for 10 minutes, then washed with PBS, and allowed to incubate at room temperature for 30 minutes in PBS containing 5% goat serum and 0.3% Triton X-100. After removing the PBS solution, PBS-Tween20 (28352; Thermo fisher scientific) containing Anti-Myosin Heavy Chain eFluor (registered trademark) 660 (50-6503-82; eBioscience) and DAPI (340-07971; Dojindo) was added to each well and allowed to incubate at room temperature for 1 hour to label the myotubes and nuclei. After washing three times with PBS-Tween20, the fluorescence was imaged using IN Cell Analyzer 6000 (GE Healthcare). […] The response of control group (1) was regarded as 0% and the response of the control group (2) was regarded as 100%. For quantification, the signal of only the acetylcholine receptor present in the myotube was used to eliminate non-specific fluorescence.
EC50 and Max value were used as indicators of activity in order to quantitatively evaluate the inducing action of the test compound on acetylcholine receptor clustering. EC50 value is a test compound concentration which indicates 50% in terms of the area of acetylcholine receptor cluster region compared to that of 10 ng/ml Agrin (regarded as 100%) in the concentration response curve. EC50 was calculated by nonlinear regression analysis from the concentration response curve using the area of the cluster region of the test compound as an index. Max value is the maximum response value. […]

Row | Structure (SMILES) | EC50 | Emax | response, % at 30 μM (at 30 μM, vs 10 ng/ml Agrin (100%))
1 | Cc1cc(-c2c(F)cc(S(=O)(=O)N3CC[C@H](F)C3)cc2F)nc2cc(CC(=O)O)ccc12 [Example 33] | 65 nM | 86.1% | 
2 | Cc1cc(-c2c(F)cc(S(=O)(=O)N3CC[C@H](F)C3)cc2F)nc2cc(/C=C/C(=O)O)ccc12 [Example 35] | 20 nM | 99.5% | 
3 | Cc1cc(-c2ccc(S(=O)(=O)N3CC[C@H](F)C3)cc2F)nc2cc(C(=O)NCC3(O)CNC3)ccc12 [Example 65] | 53 nM | 84% | 
4 | Cc1cc(-c2c(F)cc(S(=O)(=O)N3CC[C@H](F)C3)cc2F)nc2nc(C(=O)O)ccc12 [Example 39] | 2570 nM | 78.2% | 
5 | Cc1cc(-c2c(F)cc(S(=O)(=O)N3CC[C@H](F)C3)cc2F)nc2cc(C(=O)N[C@@H](CN)C(=O)O)ccc12 [Example 12, (2S)-3-amino-2-(2-{2,6-difluoro-4-[(3S)-3-fluoropyrrolidine-1-sulfonyl]phenyl}-4-methylquinoline-7-carboxamido) propanoic acid hydrochloride] | 268 nM | 69.7% | 
6 | CO[C@@H]1CN(S(=O)(=O)c2ccc(-c3cc(C)c4ccc(C(=O)O)cc4n3)c(F)c2)C[C@H]1F [Example 29] |  | 46.2% | 46.2% at 30 μM
7 | CNCCNC(=O)c1ccc2c(C)cc(-c3c(F)cc(S(=O)(=O)N4CC[C@H](F)C4)cc3F)nc2n1 [Example 61] | 26 nM | 92.4% | 
8 | Cc1cc(-c2ccc(S(=O)(=O)N3CC[C@H](F)C3)cc2C#N)nc2cc(C(=O)O)ccc12 [Example 30] | 1120 nM | 94.7% | 

Second part, led by results:

Row | EC50 | Structure (SMILES) | Emax | response, % at 30 μM (at 30 μM, vs 10 ng/ml Agrin (100%))
9 | 13 nM | Cc1c(F)c(-c2c(F)cc(S(=O)(=O)N3CC[C@H](F)C3)cc2F)nc2cc(C(=O)O)ccc12 [Example 20, 2-{2,6-difluoro-4-[(3S)-3-fluoropyrrolidine-1-sulfonyl]phenyl}-3-fluoro-4-methylquinoline-7-carboxylic acid] | 86.5% | 
10 | 5 nM | Cc1c(F)c(-c2c(F)cc(S(=O)(=O)N3CCC(F)CC3)cc2F)nc2cc(C(=O)N3CC4(CN(C)C4)C3)ccc12 [Example 44] | 81.8% | 
11 | 9 nM | Cc1c(F)c(-c2c(F)cc(S(=O)(=O)N3CC[C@H](F)C3)cc2F)nc2cc(C(=O)N3CC4(CN(C)C4)C3)ccc12 [Example 45] | 86.1% | 
12 | 19 nM | Cc1c(F)c(-c2c(F)cc(S(=O)(=O)N3CCCC3(C)C)cc2F)nc2cc(C(=O)O)ccc12 [Example 26] | 99.8% | 
13 | 2 nM | Cc1cc(-c2c(F)cc(S(=O)(=O)N3CCC(F)CC3)cc2F)nc2cc(C(=O)N3CC4(CN(C)C4)C3)ccc12 [Example 3, {2-[2,6-difluoro-4-(4-fluoropiperidine-1-sulfonyl)phenyl]-4-methylquinolin-7-yl}(6-methyl-2,6-diazaspiro[3.3]heptan-2-yl) methanone] | 91.8% | 
14 | 19 nM | Cc1cc(-c2c(F)cc(S(=O)(=O)N3CC[C@H](F)C3)cc2F)nc2cc(C(=O)N3CC4(CN(C)C4)C3)ccc12 [Example 42] | 78.1% | 
15 | 724 nM | Cc1cc(-c2c(F)cc(S(=O)(=O)N3CCC(F)CC3)cc2F)nc2nc(C(=O)O)ccc12 [Example 38] | 78.5% | 
16 | 303 nM | Cc1c(F)c(-c2c(F)cc(S(=O)(=O)N3CC[C@H](F)C3)cc2F)nc2cc(C(=O)N3CC(C)(C(=O)O)C3)ccc12 [Example 11, 1-(2-{2,6-difluoro-4-[(3S)-3-fluoropyrrolidine-1-sulfonyl]phenyl}-3-fluoro-4-methylquinoline-7-carbonyl)-3-methylazetidine-3-carboxylic acid] | 80.2% | 
17 | 21 nM | Cc1cc(-c2c(F)cc(S(=O)(=O)N3CCC(F)CC3)cc2F)nc2cc(C(=O)N3CC4(CNC4)C3)ccc12 [Example 14, (2,6-diazaspiro[3.3]heptan-2-yl) {2-[2,6-difluoro-4-(4-fluoropiperidine-1-sulfonyl)phenyl]-4-methylquinolin-7-yl}methanone] | 83.5% | 
